Where two headings read alike, the source gives them in different places.
What was measured:
H3 receptor = conditions: cited from earlier work
H3 = conditions: cited from earlier work
Histamine H3 Receptor = target: T1, Histamine H3 Receptor (Rattus norvegicus, UniProt Q9QYN8); assay: In Vitro Histamine H3 Receptor Binding Analysis ([3H]-Nα-methylhistamine, rat cortical membranes)
T1 construct: from tissue; host or cells: rat cerebral cortex membranes
Method: Histamine H3 receptor affinity was determined in rat cortical membranes using the H3 selective agonist ligand, [^3 H]-N^α -methylhistamine (78.9 Ci/mmole, DuPont NEN Research Products, Boston, Mass.) according to the method of West et al., (1990) Mol. Pharmacol. 38: 610-613 with modifications. Briefly, animals were sacrificed by decapitation and the cerebral cortex was rapidly removed. Rat cortices were mechanically homogenized with an Omni 1000 motor driven homogenizer in 10 volumes (wt/vol) of Krebs-Ringers Hepes buffer (pH 7.4) containing the following protease inhibitors; EDTA (10 mmol), PMSF (0.1 mM), chymostatin (0.2 mg/50 mL) and leupeptin (0.2 mg/50 mL). The homogenate was centrifuged in a Sorvall at ~40,000 x g for 30 min. The pellet was resuspended by mechanical homogenization in 25 mL water and lysed on ice for 30 min. The homogenate was recentrifuged and the membrane lysis was repeated. The membranes were recentrifuged and the final pellet was resuspended in 14 volumes of water to give approximately 200 μg protein/100 μl final concentration. The suspension was stored at -80° C. prior to use. Protein concentrations were determined by Coomassie Plus Protein Assay (Pierce, Rockford, Ill.).
Nonspecific binding (NSB) was accounted for by the inclusion of thioperamide (10 μM). Samples were incubated for 40 minutes at 25° C. The samples were filtered through glass fiber strips, pre-washed with 0.3% polyethyleneimine, using a Brandell cell harvester. The filters were rapidly washed three times with 4 ml of 25 mM Tris buffer containing 145 mM NaCl (pH 7.4, 4° C.). Filters were transferred to polyethylene minivials and counted in 3.5 ml of scintillation fluid (Ecolume, ICN Biomedicals, Inc.). Using this procedure, the non-specific binding was less than 10% of the total binding and the binding to the glass fiber filters was negligible. Saturation and competition experiments were analyzed with the ReceptorFit saturation and competition curve fitting programs (Lundon Software, Inc., Cleveland, Ohio).

[1] = intraventricular; rabbits; cited from earlier work
[2] = intraventricular; saline and pentobarbital-treated rats; cited from earlier work
[3] = dose-dependent; species not printed in this sentence (preceding sentence: cat); cited from earlier work
[4] = rat cortical membranes, 0.8-1.2 nM [3H]-Nα-methylhistamine, 40 minutes at 25° C., pH 7.4, read-out: H3 Receptor Ki
[5] = read-out: H3 Receptor Ki, rat cortical membranes, 0.8-1.2 nM [3H]-Nα-methylhistamine, 40 minutes at 25° C., pH 7.4

T1 sequence (Q9QYN8 whole entry): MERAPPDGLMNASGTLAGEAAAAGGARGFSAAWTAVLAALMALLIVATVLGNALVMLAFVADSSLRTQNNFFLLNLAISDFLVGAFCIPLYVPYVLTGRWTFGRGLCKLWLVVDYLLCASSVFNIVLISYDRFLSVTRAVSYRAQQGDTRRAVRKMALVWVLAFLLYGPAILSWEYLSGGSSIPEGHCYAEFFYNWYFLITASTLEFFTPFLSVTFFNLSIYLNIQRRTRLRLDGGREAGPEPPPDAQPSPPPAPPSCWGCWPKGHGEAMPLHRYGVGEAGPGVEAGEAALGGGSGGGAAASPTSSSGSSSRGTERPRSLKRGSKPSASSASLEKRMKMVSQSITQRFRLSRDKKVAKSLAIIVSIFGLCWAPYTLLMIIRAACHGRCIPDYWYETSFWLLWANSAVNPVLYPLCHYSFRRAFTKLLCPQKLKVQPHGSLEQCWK

Question: With `COc1ccc(CC(=NO)C(=O)NCCc2c[nH]cn2)cc1Br` as the compound, how does the “activity in an H3 receptor assay” value (H3 receptor) read?
Answer: Its value is “active in an H3 receptor assay”.

Question: And the “H3 antagonism on guinea pig ileum” value (H3)?
Answer: The value was “H3 antagonist on guinea pig ileum”.

Question: With `O=C(NCC1CCCCC1)[C@@H]1C[C@H]1c1c[nH]cn1` [Example 2b] as the compound, how does the Ki (Histamine H3 Receptor; [4]) read?
Answer: Its Ki is 176 ± 9 nM.

Question: For `N[C@@H](CC1CCCCC1)C(=O)N[C@@H]1C[C@H]1c1cnc[nH]1` [Example 12, (1R,2R)-trans-2-(S)-amino-3-cyclohexyl-N-(2-imidazol-4-ylcyclopropyl)propanamide], which Ki (Histamine H3 Receptor) is on record?
Answer: The Ki was 1.85 ± 0.5 nM.

Question: With `N[C@@H](CC1CCCCC1)C(=O)N[C@H]1C[C@@H]1c1cnc[nH]1` [Example 13, (1S,2S)-trans-2-(S)-amino-3-cyclohexyl-N-(2-imidazol-4-ylcyclopropyl)propanamide] as the compound, how does the Ki (Histamine H3 Receptor) read?
Answer: The Ki was 21.5 ± 1.8 nM.

Question: For `O=C(N[C@@H]1C[C@H]1c1c[nH]cn1)[C@@H]1CC2CCCCC2N1` (stereo partly drawn) [Example 14, (2R, 3R)-trans-(7-Azabicyclo[4.3.0]non-(S)-8-yl)-N-(2-imidazol-4-ylcyclopropyl)formamide], which Ki (Histamine H3 Receptor) is on record?
Answer: The Ki was 8.5 ± 0.7 nM.

Question: Which Ki (Histamine H3 Receptor) does the source give for `O=C(N[C@H]1C[C@@H]1c1c[nH]cn1)[C@@H]1CC2CCCCC2N1` (stereo partly drawn) [Example 15, (2S, 3S)-trans-(7-Azabicyclo[4.3.0]non-(S)-8-yl)-N-(2-imidazol-4-ylcyclopropyl)formamide] here?
Answer: The Ki was 37 ± 4 nM.

Question: For `N[C@H](/C=C/[C@@H]1C[C@H]1c1c[nH]cn1)CC1CCCCC1` [Example 20, (1R,2R)-trans-1-Cyclohexyl-4-(2-imidazol-4-ylcyclopropyl)but-trans-3-en-2(S)-ylamine], which Ki (Histamine H3 Receptor; [5]) is on record?
Answer: The Ki was 0.37 ± 0.2 nM.

Question: For `N[C@H](/C=C\[C@@H]1C[C@H]1c1c[nH]cn1)CC1CCCCC1` [Example 21, (1R,2R)-trans-1-Cyclohexyl-4-(2-imidazol-4-ylcyclopropyl)but-cis-3-en-2(S)-ylamine], which Ki (Histamine H3 Receptor; [5]) is on record?
Answer: Its Ki is 97.7 ± 28 nM.

Question: Which Ki (Histamine H3 Receptor) does the source give for `C(=C/[C@@H]1C[C@H]1c1c[nH]cn1)/CCC1CCCCC1` [Example 23, (1R, 2R)-trans-4-(2-(4-Cyclohexylbut-cis-1-enyl)cyclopropyl)imidazole] here?
Answer: Its Ki is 6.2 ± 0.8 nM.

Question: Which Ki (Histamine H3 Receptor; [4]) does the source give for `C(=C/[C@H]1C[C@@H]1c1c[nH]cn1)/CCC1CCCCC1` [Example 24, (1S, 2S)-trans-4-(2-(4-Cyclohexylbut-cis-1-enyl)cyclopropyl)imidazole] here?
Answer: Its Ki is 108 ± 3 nM.

Question: With `C(=C\[C@H]1C[C@@H]1c1c[nH]cn1)/CCC1CCCCC1` [Example 25, (1S, 2S)-trans-4-(2-(4-Cyclohexylbut-trans-1-enyl)cyclopropyl)imidazole] as the compound, how does the Ki (Histamine H3 Receptor) read?
Answer: Its Ki is 56 ± 9 nM.

Question: With `O=C(NCCC1CCCCC1)C1CC1c1c[nH]cn1` [Example 27, (1S, 2S)-trans-N-(2-Cyclohexylethyl)(2-imidazol-4-ylcyclopropyl)formamide] as the compound, how does the Ki (Histamine H3 Receptor; [4]) read?
Answer: Its Ki is 8.8 ± 0.1 nM.

Question: Which Ki (Histamine H3 Receptor; [4]) does the source give for `O=C(NCCC1CCCCC1)C1CC1c1c[nH]cn1` [Example 28, (1R, 2R)-trans-N-(2-Cyclohexylethyl)(2-imidazol-4-ylcyclopropyl)formamide] here?
Answer: The Ki was 46 ± 13 nM.

Question: For `O=C(NCCCC1CCCCC1)[C@H]1C[C@@H]1c1cnc[nH]1` [Example 30], which Ki (Histamine H3 Receptor) is on record?
Answer: The Ki was 42 ± 7 nM.

Question: For `CC(C)(C)CCC#C[C@@H]1C[C@H]1c1c[nH]cn1` [Example 39, (1R,2R)-4-(2-(5,5-Dimethylhex-1-ynyl)cyclopropyl)imidazole], which Ki (Histamine H3 Receptor; [4]) is on record?
Answer: The Ki was 0.15 ± 0.04 nM.

Question: For `CC(C)(C)CC/C=C\[C@H]1C[C@H]1c1c[nH]cn1` [Example 42, (1R,2R)-4-(2-(5,5-Dimethyl-cis-hex-1-enyl)cyclopropyl)imidazole], which Ki (Histamine H3 Receptor) is on record?
Answer: Its Ki is 41 ± 4 nM.

Question: For `N[C@@H](Cc1ccc(I)cc1)C(=O)N[C@@H]1C[C@H]1c1cnc[nH]1` [Example 44], which Ki (Histamine H3 Receptor; [4]) is on record?
Answer: The Ki was 10.4 ± 1.6 nM.

Question: For `N[C@@H](Cc1ccc(Br)cc1)C(=O)N[C@@H]1C[C@H]1c1c[nH]cn1` [Example 45], which Ki (Histamine H3 Receptor; [4]) is on record?
Answer: Its Ki is 9.4 ± 1.1 nM.

Question: Which Ki (Histamine H3 Receptor; [4]) does the source give for `CC(C)(C)CCC#C[C@H]1C[C@@H]1c1cnc[nH]1` [Example 52, (1S,2S)-trans-4-(2-(5,5-Dimethylhex-1-ynyl)cyclopropyl)imidazole] here?
Answer: The Ki was 5.3 ± 0.5 nM.

Question: Which results are given for `NCCc1c[nH]cn1` [histamine]?
Answer: arousal EEG pattern [1]: induces the appearances of an arousal EEG pattern; spontaneous locomotor activity, grooming and exploratory behavior [2]: increased spontaneous locomotor activity, grooming and exploratory behavior

Question: Which wakefulness [3] does the source give for `S=C(NC1CCCCC1)N1CCC(c2cnc[nH]2)CC1` [thioperamide] here?
Answer: The wakefulness was “enhanced wakefulness in a dose-dependent fashion”.

Source: patent US6008240A, “2-(1H-4(5)-imidazoyl) cyclopropyl derivatives” (Gliatech, Inc., priority 1997, dated 1999)
